# Assay results reported in patent publication US20050032827A1, “Sigma ligands for neuronal regeneration and functional recovery” (priority 2003, published 2005).
# How the values were obtained:
# sigma-1 site = sigma-1 site (Homo sapiens, UniProt Q99720); details: (+) isomers of benzomorphan opiates; Hellewell and Bowen (1990); cited from earlier work
# [1] = test system: NMDA-induced toxicity and seizures; details: in vivo models; Pontecorvo et al. (1991); cited from earlier work
# [2] = test system: SHR (spontaneous hypertensive) rats, stroke by MCA occlusion; assay: Rotating pole test after MCA occlusion; type: in vivo, rat; details: 0.03-10 mg/kg s.c. or p.o. from two days after MCAO for 2-8 weeks; saline control
# Source text: (§1) Male 3 months old SHR (spontaneous hypertensive) rats are used for induction of stroke by MCA occlusion. This is the preferred strain since most stroke patients are hypertensive. The animals are anesthetized with Methohexital and a small craniectomy is made above the zygmotic arch to expose the middle cerebral artery, which is occluded with a 10-0 monofilament nylon thread distal to the origin of the striatal branches. The rats are not intubated and no catheters are inserted. Following MCA occlusion a large and reproducible infarct is obtained, leading to a robust sensorimotor deficit. The animals are kept on a 6 hr light/18 h dark cycle with free access to food and water. At two days after the MCAO the rats are treated with the compound I, II, III, IV, V, VI, VII, VIII, or IX (0.03-10 mg/kg) s.c. or p.o. and a control group is given saline for 2-8 weeks. At 2, 4, 6 and 8 weeks animals are tested in the rotating pole or cylinder test
# A score of 6-0 is given for each direction: • 6, the animal crosses the pole with no foot slips; • 5, the animal crosses the pole with a few foot slips; • 4, the animal crosses the pole, slipping 50% of the footsteps; • 3, the animal crosses the pole with more than 50% foot slips; • 2, the animal walks a bit and then rotates around the pole; • 1, the animal rotates around the pole without crossing it; • 0, the animal falls off the pole. Cylinder Test for Asymmetric Use of Forelimb Use in Spontaneous Rearing
# [3] = test system: SHR (spontaneous hypertensive) rats, stroke by MCA occlusion; assay: Cylinder test for asymmetric forelimb use after MCA occlusion; type: in vivo, rat; details: 0.03-10 mg/kg s.c. or p.o. from two days after MCAO for 2-8 weeks; saline control
# Source text: as §1
# The cylinder test (modified from Schallert and Tillerson (Innovative models of CNS disease: from molecule to therapy. Clifton, N.J., Humana, 1999) is used to quantify the forelimb use for rearing on the cylinder wall. The rats are monitored as they move freely in a 20-cm-wide clear glass cylinder. Contacts made by each forepaw with the cylinder wall while rearing are scored by a blinded observer. A total of 20 contacts are recorded for each animal, and the number of impaired (left), both, and non-impaired forelimb contacts as percentage of total contacts is calculated. Baseline for rats is achieved by measuring the contacts made by each forepaw before MCAO.
# [4] = test system: cultured rat retinal neurons; details: Senda et al. (1998); cited from earlier work
# sigma-1 receptor = sigma-1 receptor (Homo sapiens, UniProt Q99720); details: literature reports; cited from earlier work
# [5] = test system: rat primary neuronal cultures; details: Nakazawa et al. (1998); cited from earlier work
# [6] = test system: hypertensive rats exposed to permanent middle artery occlusion (MCAO), a model of ischemic stroke; assay: Morris water maze after permanent MCAO; type: in vivo, rat; details: for Latency to Find Hidden Platform, TRIAL 3 / Latency to Find Hidden Platform, TRIAL 4 / Latency to Find Hidden Platform, TRIAL 5 / Latency to Find Hidden Platform, TRIAL 1 / Latency to Find Hidden Platform, TRIAL 2 / Path Length to Find Hidden Platform, TRIAL 1 / Path Length to Find Hidden Platform, TRIAL 2 / Path Length to Find Hidden Platform, TRIAL 3 / Path Length to Find Hidden Platform, TRIAL 4 / Path Length to Find Hidden Platform, TRIAL 5: 14 days from day 2 after MCAO, tested day 35; for Latency to Find Hidden Platform, TRIAL 1 / Latency to Find Hidden Platform, TRIAL 2 / Path Length to Find Hidden Platform, TRIAL 1 / Path Length to Find Hidden Platform, TRIAL 2 / Path Length to Find Hidden Platform, TRIAL 3 / Path Length to Find Hidden Platform, TRIAL 4 / Path Length to Find Hidden Platform, TRIAL 5: value (SEM)
# Protocol: The Morris water maze was used to assess functional recovery, in particular recovery in a cognitive skill, in hypertensive rats after exposure to permanent middle artery occlusion (MCAO), a model of ischemic stroke.
# Forty three hypertensive rats were exposed to permanent middle artery occlusion (MCAO). Starting at two days after occlusion and continuing for 14 days, Siramesine was administered p.o. in doses of 0.3 mg/kg (14 rats) or 1.0 mg/kg (14 rats). In a control group (15 rats), vehicle only was administered. On day 35 after permanent MCAO, the rats were assessed for their performance in the Morris Water Maze Test.
# In the test, the rats were given a series of 6 trials, 1 hour apart in a large dark-colored tank (200 cm in ) filled with clear water at a temperature of 22.0±1.5° C. A 12×12-cm submerged platform (2 mm below the water surface) was placed in the northwest quadrant of the pool. The release point was always the southern end of the pool. The rats were lowered into the pool facing the wall, and then released. Each rat was given a maximum of 90 seconds to find the submerged platform. […] After remaining on the platform for 20 seconds, the rat was removed and placed in a dry cage. One hour later, each rat was given a second trial, using the same release position and platform position, to measure the rat's retention of the platform location. The process was repeated a total of 5 times for each rat, each trial 1 hour apart. The swim paths of the rats were recorded with a computer tracking system and the latency and the length of swim path to find the hidden platform were analyzed.
# sigma-2 receptor = sigma-2 receptor (Homo sapiens, UniProt Q5BJF2); details: Perregaard et al. (1995); cited from earlier work
# [7] = hydrohalide salts, in particular the hydrochloride salt; WO 99/24436; cited from earlier work
# ischemia in gerbils = details: cited from earlier work
# [8] = test system: NMDA-type of glutamate receptors; details: cited from earlier work
# Chain of sigma-1 receptor (Q99720 whole entry): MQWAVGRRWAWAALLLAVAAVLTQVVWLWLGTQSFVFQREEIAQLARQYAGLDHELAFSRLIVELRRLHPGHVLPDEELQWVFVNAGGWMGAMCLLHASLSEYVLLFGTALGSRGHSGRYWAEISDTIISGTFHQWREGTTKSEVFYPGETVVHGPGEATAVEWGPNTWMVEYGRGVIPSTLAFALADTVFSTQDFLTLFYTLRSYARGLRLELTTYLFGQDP
# Chain of sigma-1 site (Q99720 whole entry): as above
# Chain of sigma-2 receptor (Q5BJF2 whole entry, species assumed): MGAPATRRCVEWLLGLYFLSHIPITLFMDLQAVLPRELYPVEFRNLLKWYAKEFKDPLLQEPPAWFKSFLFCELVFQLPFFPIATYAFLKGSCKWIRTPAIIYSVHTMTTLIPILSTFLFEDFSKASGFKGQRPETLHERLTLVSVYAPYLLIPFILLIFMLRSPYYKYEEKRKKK
compound,measurement,setting,value
"CC(C)=CCN1CCC2(C)c3cc(O)ccc3CC1C2C (single isomer, unassigned; (+)) [(+)pentazocine]",affinity for the sigma-1 site compared to the sigma-2 site,sigma-1 site,nearly two orders of magnitude higher affinity for the sigma-1 site
OC(CCCN1CCN(c2ncc(F)cn2)CC1)c1ccc(F)cc1 (stereo not drawn) [BMY-14802],protective effects against NMDA-induced toxicity and seizures,[1],protective effects against NMDA-induced toxicity and seizures
O=C(OCCN1CCOCC1)C1(c2ccccc2)CCCCC1 [III],performance in rotating pole test versus control,[2],perform better than the group 1 control animals
same,performance in cylinder test versus control,[3],perform better than the group 1 control animals
O=C(NC1CCN(Cc2ccccc2)CC1)c1ccc(I)cc1 [II],performance in rotating pole test versus control,[2],perform better than the group 1 control animals
same,performance in cylinder test versus control,[3],perform better than the group 1 control animals
COc1ccc(CCN2CCN(CCCc3ccccc3)CC2)cc1OC [IV],performance in rotating pole test versus control,[2],perform better than the group 1 control animals
same,performance in cylinder test versus control,[3],perform better than the group 1 control animals
COc1ccc(CN2CCN(Cc3ccccc3)CC2)c(O)c1OC [IX],performance in rotating pole test versus control,[2],perform better than the group 1 control animals
same,performance in cylinder test versus control,[3],perform better than the group 1 control animals
"COc1ccc(CCN2CCN(CCCc3ccccc3)CC2)cc1OC [SA4503, 1-(3,4-dimethoxyphenethyl)-4-(3-phenylpropyl) piperazine]",activity against glutamate neurotoxicity,[4],active against glutamate neurotoxicity
same,sigma-1 receptor functional activity,sigma-1 receptor,selective sigma-1 agonist
same,suppression of hypoxia/hypoglycemia-induced neurotoxicity,[5],significantly suppress hypoxia/hypoglycemia-induced neurotoxicity
"Fc1ccc(-n2cc(CCCCN3CCC4(CC3)OCc3ccccc34)c3ccccc32)cc1 [Siramesine, 1′-[4-[1-(4-fluorophenyl)-1H-indol-3-yl]-1-butyl] spiro [isobenzofuran-1(3H),4′-piperidine]]",sigma-1 receptor functional activity,sigma-1 receptor,displays activity towards the sigma 1 receptor
same,"Latency to Find Hidden Platform, TRIAL 3",[6]; 0.3 mg/kg p.o.,47.0 s
same,"Latency to Find Hidden Platform, TRIAL 4",[6]; 0.3 mg/kg p.o.,33.1 s
same,"Latency to Find Hidden Platform, TRIAL 5",[6]; 0.3 mg/kg p.o.,15.66 s
same,"Latency to Find Hidden Platform, TRIAL 1",[6]; 0.3 mg/kg p.o.,72.4 (7.3) SECONDS
same,"Latency to Find Hidden Platform, TRIAL 2",[6]; 0.3 mg/kg p.o.,43.6 (7.9) SECONDS
same,"Path Length to Find Hidden Platform, TRIAL 1",[6]; 0.3 mg/kg p.o.,14.5 (1.8) METERS
same,"Path Length to Find Hidden Platform, TRIAL 2",[6]; 0.3 mg/kg p.o.,12.4 (2.3) METERS
same,"Path Length to Find Hidden Platform, TRIAL 3",[6]; 0.3 mg/kg p.o.,14.4 (2.7) METERS
same,"Path Length to Find Hidden Platform, TRIAL 4",[6]; 0.3 mg/kg p.o.,10.4 (2.4) METERS
same,"Path Length to Find Hidden Platform, TRIAL 5",[6]; 0.3 mg/kg p.o.,4.3 (0.6) METERS
same,"Latency to Find Hidden Platform, TRIAL 3",[6]; 1.0 mg/kg p.o.,59.99 s
same,"Latency to Find Hidden Platform, TRIAL 4",[6]; 1.0 mg/kg p.o.,34.3 s
same,"Latency to Find Hidden Platform, TRIAL 5",[6]; 1.0 mg/kg p.o.,19.8 s
same,"Latency to Find Hidden Platform, TRIAL 1",[6]; 1.0 mg/kg p.o.,62.4 (7.7) SECONDS
same,"Latency to Find Hidden Platform, TRIAL 2",[6]; 1.0 mg/kg p.o.,62.2 (8.5) SECONDS
same,"Path Length to Find Hidden Platform, TRIAL 1",[6]; 1.0 mg/kg p.o.,11.1 (1.4) METERS
same,"Path Length to Find Hidden Platform, TRIAL 2",[6]; 1.0 mg/kg p.o.,16.2 (2.2) METERS
same,"Path Length to Find Hidden Platform, TRIAL 3",[6]; 1.0 mg/kg p.o.,16.65 (2.2) METERS
same,"Path Length to Find Hidden Platform, TRIAL 4",[6]; 1.0 mg/kg p.o.,9.7 (1.9) METERS
same,"Path Length to Find Hidden Platform, TRIAL 5",[6]; 1.0 mg/kg p.o.,5.29 (1.5) METERS
same,"functional recovery, in particular recovery in a cognitive skill",[6]; administered daily to rats from 2 days after the stroke for 14 days,facilitates functional recovery
same,sigma-2 receptor functional activity,sigma-2 receptor,selective sigma-2 agonist
same,performance in rotating pole test versus control,[2],perform better than the group 1 control animals
same,performance in cylinder test versus control,[3],perform better than the group 1 control animals
same,bioavailability,[7],good bioavailability
CN(CCc1ccc(Cl)c(Cl)c1)C1CCCCC1N1CCCC1 (stereo not drawn) [VIII],performance in rotating pole test versus control,[2],perform better than the group 1 control animals
same,performance in cylinder test versus control,[3],perform better than the group 1 control animals
COc1cccc2c1CCC(=O)N2CCCN1CCN(c2cccc(Cl)c2)CC1 [VII],performance in rotating pole test versus control,[2],perform better than the group 1 control animals
same,performance in cylinder test versus control,[3],perform better than the group 1 control animals
CCC(C/C=C/c1ccccc1)(c1ccccc1)N(C)CC1CC1 (stereo not drawn) [VI],performance in rotating pole test versus control,[2],perform better than the group 1 control animals
same,performance in cylinder test versus control,[3],perform better than the group 1 control animals
CCN(CC)CCOC(=O)C1(c2ccccc2)CCCC1 [caramiphen],protective effects against NMDA-induced toxicity and seizures,[1],protective effects against NMDA-induced toxicity and seizures
COCCCC/C(=N\OCCN)c1ccc(C(F)(F)F)cc1 [compound I],performance in rotating pole test versus control,[2],perform better than the group 1 control animals
same,performance in cylinder test versus control,[3],perform better than the group 1 control animals
O=C(CCCN1CCC(O)(c2ccc(Cl)cc2)CC1)c1ccc(F)cc1 [haloperidol],protective effects against NMDA-induced toxicity and seizures,[1],protective effects against NMDA-induced toxicity and seizures
OCCN1CCN(CCCN2c3ccccc3C=Cc3ccccc32)CC1 [opipramol],protection against ischemia,ischemia in gerbils,protect against ischemia in gerbils
same,modulation of NMDA-type glutamate receptors,[8],modulate the NMDA-type of glutamate receptors
